Laboratory results: DBAASP
Converted amounts (≈) assume the structure as drawn. One block for each molecule: values may come before it.

Key:
Assay in all cases: ≥ marks a high value that may be exact or a test limit, other limits are often not marked, values filed in µg/mL are converted to µM
[1] = system: Candida albicans ATCC 90028
[2] = system: Candida glabrata ATCC 90030
[3] = system: Candida krusei ATCC 6258
[4] = system: Enterobacter cloacae ATCC 13047
[5] = system: Enterococcus faecalis ATCC 4028
[6] = system: Escherichia coli ATCC 25922
[7] = system: Pseudomonas aeruginosa ATCC 27853
[8] = system: Staphylococcus aureus ATCC 29213
[9] = system: Staphylococcus epidermidis ATCC 12228
[10] = system: Acinetobacter baumannii KCTC 2508
[11] = system: Klebsiella pneumoniae KCTC 2208
[12] = system: Acinetobacter baumannii Q12-0809
[13] = system: Acinetobacter baumannii Q12-0867
[14] = system: Acinetobacter baumannii Q13-0717
[15] = system: Campylobacter jejuni NCTC 11351
[16] = system: Campylobacter jejuni
[17] = system: Enterococcus faecalis JH-2-2
[18] = system: Escherichia coli K-12
[19] = system: Escherichia coli
[20] = system: Klebsiella pneumoniae ATCC 700603
[21] = system: Klebsiella pneumoniae NCTC 13442
[22] = system: Klebsiella pneumoniae Q14-0095
[23] = system: Listeria monocytogenes NCTC 11994
[24] = system: Pseudomonas aeruginosa PAO1
[25] = system: Pseudomonas aeruginosa Q12-0535
[26] = system: Pseudomonas aeruginosa Q14-0208
[27] = system: Pseudomonas aeruginosa Q14-0890
[28] = system: Salmonella typhimurium SL1344
[29] = system: Staphylococcus aureus MRSA-15
[30] = system: Staphylococcus aureus NCTC 12493
[31] = system: Staphylococcus aureus Q14-0320
[32] = system: Staphylococcus aureus RN4220
[33] = system: Acinetobacter baumannii AB5075
[34] = system: Bacillus amyloliquefaciens ATCC 23842
[35] = system: Bacillus cereus ATCC 14579
[36] = system: Bacillus licheniformis ATCC 14580
[37] = system: Bacillus subtilis ATCC 6051
[38] = system: Enterococcus faecalis 1F-1
[39] = system: Enterococcus faecalis A4
[40] = system: Enterococcus faecium 5F-10
[41] = system: Enterococcus faecium
[42] = system: Escherichia coli NDM
[43] = system: Escherichia coli W3110
[44] = system: Pseudomonas aeruginosa PA14
[45] = system: Staphylococcus aureus 215
[46] = system: Staphylococcus aureus MR
[47] = system: Staphylococcus aureus
[48] = system: Aeromonas hydrophila
[49] = system: Streptococcus pyogenes
[50] = system: Vibrio alginolyticus
[51] = system: Vibrio fluvialis
[52] = system: Vibrio parahaemolyticus

- MIC [1]: 4.69 µM (≈ 9.14 µg/mL)
- MIC [2]: 9.38 µM (≈ 18.3 µg/mL)
- MIC [3]: 9.38 µM (≈ 18.3 µg/mL)
- MIC [4]: 9.38 µM (≈ 18.3 µg/mL)
- MIC [5]: 1.17 µM (≈ 2.28 µg/mL)
- MIC [6]: 2.34 µM (≈ 4.56 µg/mL)
- MIC [7]: 1.17 µM (≈ 2.28 µg/mL)
- MIC [8]: 2.34 µM (≈ 4.56 µg/mL)
- MIC [9]: 9.38 µM (≈ 18.3 µg/mL)
SMILES: CC[C@H](C)[C@H](NC(=O)[C@H](CC(C)C)NC(=O)CNC(=O)[C@H](CCCCN)NC(=O)[C@@H](NC(=O)[C@H](CC(C)C)NC(=O)[C@H](CCCCN)NC(=O)[C@@H]1CCCN1C(=O)[C@@H](NC(=O)[C@H](CC(C)C)NC(=O)[C@H](CCCCN)NC(=O)[C@H](Cc1ccccc1)NC(=O)[C@@H](N)Cc1ccccc1)[C@@H](C)CC)C(C)C)C(=O)N[C@@H](CO)C(=O)N[C@@H](C)C(=O)N[C@@H](Cc1ccccc1)C(=O)N[C@@H](CCCCN)C(N)=O [FFKLIPKLVKGLISAFK]

- MIC [10]: 4 µM (≈ 11.7 µg/mL)
- MIC [11]: 8 µM (≈ 23.5 µg/mL)
- MIC [7]: 4 µM (≈ 11.7 µg/mL)
SMILES: CC[C@H](C)[C@H](N)C(=O)N[C@@H](C)C(=O)N[C@@H](CCCN=C(N)N)C(=O)N[C@@H](CCCN=C(N)N)C(=O)N[C@@H](C)C(=O)N[C@@H](CC(C)C)C(=O)N[C@@H](CCCCN)C(=O)N[C@@H](C)C(=O)N[C@@H](CO)C(=O)N[C@@H](CC(C)C)C(=O)N[C@@H](CCCN=C(N)N)C(=O)N[C@@H](C)C(=O)N[C@@H](CCCN=C(N)N)C(=O)N[C@@H](Cc1cnc[nH]1)C(=O)N[C@H](C(=O)N[C@H](C(=O)N1CCC[C@H]1C(=O)N[C@@H](CCC(N)=O)C(=O)N[C@@H](CS)C(=O)N[C@@H](CCCCN)C(=O)N[C@@H](CCCCN)C(=O)N[C@@H](Cc1ccccc1)C(=O)NCC(=O)N[C@@H](CCCN=C(N)N)C(=O)N[C@@H](CCCN=C(N)N)C(N)=O)[C@@H](C)CC)[C@@H](C)O [IARRALKASLRARHTIPQCKKFGRR]

- MIC [12]: 26.1 µM (≈ 64 µg/mL)
- MIC [13]: ≥ 52.2 µM
- MIC [14]: ≥ 52.2 µM
- MIC [15]: ≥ 52.2 µM
- MIC [16]: ≥ 52.2 µM
- MIC [17]: ≥ 209 µM
- MIC [18]: ≥ 104 µM
- MIC [19]: > 52.2 µM
- MIC [20]: > 52.2 µM
- MIC [21]: ≥ 52.2 µM
- MIC [22]: ≥ 52.2 µM
- MIC [23]: ≥ 209 µM
- MIC [7]: > 52.2 µM
- MIC [24]: 209 µM (≈ 512 µg/mL)
- MIC [25]: ≥ 51 µM
- MIC [26]: ≥ 52.2 µM
- MIC [27]: ≥ 52.2 µM
- MIC [28]: 26.1 µM (≈ 64 µg/mL)
- MIC [8]: > 52.2 µM
- MIC [29]: ≥ 102 µM
- MIC [30]: ≥ 52.2 µM
- MIC [31]: ≥ 52.2 µM
- MIC [32]: ≥ 104 µM
SMILES: CC[C@H](C)[C@H](NC(=O)[C@H](CO)NC(=O)[C@@H](N)CCCN=C(N)N)C(=O)N[C@H](C(=O)N[C@@H](CCCN=C(N)N)C(=O)N1CCC[C@H]1C(=O)N[C@H](C(=O)N[C@@H](CC(C)C)C(=O)N[C@H](C(=O)N[C@@H](CCCN=C(N)N)C(=O)N[C@@H](CCCN=C(N)N)C(=O)N[C@@H](CCCN=C(N)N)C(=O)N[C@@H](Cc1c[nH]c2ccccc12)C(=O)N[C@@H](CCCN=C(N)N)C(=O)N[C@H](C(=O)N[C@@H](CCCN=C(N)N)C(=O)N1CCC[C@H]1C(=O)N[C@H](C(=O)N[C@@H](Cc1ccccc1)C(=O)O)C(C)C)C(C)C)C(C)C)C(C)C)[C@@H](C)O [RSITRPVLVRRRWRVRPVF]

- MIC [33]: 1 µM (≈ 2.54 µg/mL)
- MIC [34]: 25.2 µM (≈ 64 µg/mL)
- MIC [35]: 25.2 µM (≈ 64 µg/mL)
- MIC [36]: 25.2 µM (≈ 64 µg/mL)
- MIC [37]: 25.2 µM (≈ 64 µg/mL)
- MIC [38]: 3.15 µM (≈ 8 µg/mL)
- MIC [39]: 3.15 µM (≈ 8 µg/mL)
- MIC [40]: 1.57 µM (≈ 4 µg/mL)
- MIC [41]: 3.15 µM (≈ 8 µg/mL)
- MIC [42]: ≥ 32 µM
- MIC [43]: 16 µM (≈ 40.6 µg/mL)
- MIC [44]: 16 µM (≈ 40.6 µg/mL)
- MIC [45]: 12.6 µM (≈ 32 µg/mL)
- MIC [8]: 25.2 µM (≈ 64 µg/mL)
- MIC [46]: 25.2 µM (≈ 64 µg/mL)
- MIC [47]: 6.3 µM (≈ 16 µg/mL)
SMILES: CC[C@H](C)[C@H](NC(=O)[C@H](CC(C)C)NC(=O)[C@H](CO)NC(=O)[C@@H](NC(=O)[C@H](CCC(N)=O)NC(=O)[C@H](Cc1ccc(O)cc1)NC(=O)[C@H](CCCN=C(N)N)NC(=O)[C@H](CCCN=C(N)N)NC(=O)[C@H](CCCN=C(N)N)NC(=O)[C@@H](NC(=O)[C@H](CO)NC(=O)[C@@H](NC(=O)[C@@H](N)[C@@H](C)O)[C@@H](C)O)[C@@H](C)CC)C(C)C)C(=O)N[C@@H](CCCN=C(N)N)C(=O)N[C@@H](CCCN=C(N)N)C(=O)N[C@@H](Cc1cnc[nH]1)C(=O)N[C@@H](CCCN=C(N)N)C(=O)NCC(=O)N[C@@H](CCCCN)C(=O)N[C@@H](CCCN=C(N)N)C(=O)O [TTSIRRRYQVSLIRRHRGKR]

- MIC [48]: 2.12 µM (≈ 3.9 µg/mL)
- MIC [19]: 2.12 µM (≈ 3.9 µg/mL)
- MIC [47]: 34 µM (≈ 62.5 µg/mL)
- MIC [49]: ≥ 34 µM
- MIC [50]: 2.12 µM (≈ 3.9 µg/mL)
- MIC [51]: ≥ 34 µM
SMILES: CC[C@H](C)[C@H](NC(=O)[C@H](CCCCN)NC(=O)[C@H](Cc1cnc[nH]1)NC(=O)[C@H](CC(C)C)NC(=O)[C@H](CC(C)C)NC(=O)[C@H](Cc1ccccc1)NC(=O)[C@H](CC(N)=O)NC(=O)[C@@H](N)C(C)C)C(=O)N[C@@H](Cc1ccc(O)cc1)C(=O)NCC(=O)N[C@@H](CC(N)=O)C(=O)N[C@H](C(=O)N[C@@H](CCCN=C(N)N)C(=O)N[C@@H](Cc1ccc(O)cc1)C(=O)N[C@@H](CO)C(=O)O)[C@@H](C)CC [VNFLLHKIYGNIRYS]
- MIC [52]: 17 µM (≈ 31.2 µg/mL)
